Experimental data from PubChem BioAssay AID179 (DTP/NCI, 2004).
Calls of active or inactive are those of the source.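 How the source made its calls: active means compounds giving half or more protection of infected cells from virus-caused growth loss, again on retest; inactive means the rest.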 Where a SMILES comes first, the peptide text is derived from it. The star is where a group is joined. Boc = CC(C)(C)OC(=O)*; OBn = c1ccc(CO*)cc1

System: CEM cells HIV-1 protection, formazan growth assay
Experiment: NCI AIDS Antiviral Assay
Settings: for IC50: measured here: growth of uninfected CEM cells
In short: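 CEM (human) cells, HIV-1 infected vs uninfected, 5-point dosing, formazan growth read-out. Retest threshold 50% protection.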

Row | SMILES | EC50 [µM] | IC50 [µM] | outcome
1 | CS/C(=N\N=C(/C)c1ccccn1)SS/C(=N/N=C(\C)c1ccccn1)SC | > 2 | 0.00741 | –
2 | COc1ccc(C[C@H](N)C(=O)N2C[C@@H](CO)C[C@@H](n3ccc(=O)[nH]c3=O)C2)cc1 | > 309 | > 309 | –
3 | CN(/N=C/c1ccccn1)C1=NCCCCN1 | > 200 | > 200 | –
4 | CC(C)[Si](O[C@@H]1CCC[C@@]23O[C@@H]2CC2C(=O)c4c(O)cccc4C(=O)[C@@]2(O)[C@@H]13)(C(C)C)C(C)C (stereo not given in full) | > 200 | 14.1 | –
5 | COc1cc2c(cc1OC)C(CSC)Cc1cc(OC)c(OC)cc1N(C)CCC2 (stereo not given) | > 31.6 | > 31.6 | –
6 | CCn1c(SCC(=O)NNC(=S)NC)nc2ccccc2c1=O | > 200 | > 200 | –
7 | COc1ccc(-c2coc3cc(O)ccc3c2=O)c(O)c1OC | > 200 | 14.8 | –
8 | COc1cc(C2C3=C(N=C4SC(C(C)=O)=C(C)N42)c2ccccc2CC3)cc(OC)c1OC (stereo not given) | > 200 | 40.7 | –
9 | O=c1cc(CNC2CC3CCC2C3)[nH]c(=O)[nH]1 (stereo not given) | – | – | inactive
10 | O=c1scc(-c2ccc([N+](=O)[O-])cc2)s1 | > 6.03 | > 6.03 | –
11 | CN(C)CCNC(=O)C(C)(C)Oc1ccc(C(=O)c2ccc(Cl)cc2)cc1Cl | > 200 | 9.55 | –
12 | CC1=CC(=O)/C(=C/n2c(=S)[nH]c3ccccc32)C(=O)O1 | > 200 | > 200 | –
13 | CC(=O)OCC1OC(Nc2[nH]c(=O)[nH]c(=O)c2N=O)C(OC(C)=O)C(OC(C)=O)C1OC(C)=O (stereo not given) | > 200 | > 200 | –
14 | O=[N+]([O-])c1cnn(C2=CNc3ccccc3N=C2)c1 | > 7.41 | > 7.41 | –
15 | COc1ccccc1C1SC(c2ccccc2)(c2ccccc2)OC1=O (stereo not given) | > 3.98 | > 3.98 | –
16 | CC(C)(C)[Si](C)(C)OCC1OC(n2ccc(=O)[nH]c2=O)C(OC(=S)Oc2ccccc2)C1O[Si](C)(C)C(C)(C)C (stereo not given) | > 200 | 2 | –
17 | C/C(=N\Nc1ncnc2ccccc12)c1ccccn1 | > 0.2 | 0.0257 | –
18 | Cc1cn(C2OCC(CO)C2F)c(=O)[nH]c1=O (stereo not given) | > 200 | > 200 | –
19 | CC(C)C(NC(=O)OC(C)(C)C)C(=O)N1CCCC1C(=O)OCc1ccccc1 (stereo not drawn) (Boc-Val-Pro-OBn; configuration not given here) | > 200 | 123 | –
20 | CC(=O)Oc1cc(OC(C)=O)c(CC=C(C)C)c(-c2cc3ccc(OC(C)=O)c(C/C=C(\C)CCC=C(C)C)c3o2)c1 | > 4.57 | > 4.57 | –
21 | CC(=O)OCC1OC(n2c(=S)n(-c3ccccc3)c(=O)c3cc(Br)cc(Br)c32)C(OC(C)=O)C(OC(C)=O)C1OC(C)=O (stereo not given) | > 18.2 | > 18.2 | –
22 | Cc1ccc(-c2[nH]c(=O)n(C3OC(CO)C(O)C(O)C3O)c(=O)c2C#N)cc1 (stereo not given) | > 200 | > 200 | –

Row | SMILES | EC50 [µM] | IC50 [µM] | outcome
23 | Cc1cc2c(C(C)C)c(O)c(O)c(C=Nc3ccc(N=Nc4ccccc4)cc3)c2c(O)c1-c1c(C)cc2c(C(C)C)c(O)c(O)c(C=Nc3ccc(N=Nc4ccccc4)cc3)c2c1O | – | – | inactive
24 | Nc1nc(Cl)c(CO)c(NCC2(CO)CC(CCc3ccccc3)C2)n1 (stereo not given) | > 20 | 0.129 | –
25 | COC(=O)C1=C(\c2ccccc2)c2ccccc2C(=O)N(C2CCCCC2)/C=C\1 | > 200 | 25.7 | –
26 | CC(=O)N(C(=O)CC(=O)N1N=C(C)C(N=Nc2cccc([N+](=O)[O-])c2)C1=O)c1ccc(Cl)cc1 (stereo not given) | > 170 | 72.4 | –
27 | COC(=O)C1(C)CCc2c(OC)ccc(OC)c2C1=O (stereo not given) | 120 | 324 | –
28 | CC[C@@H]1C[C@@H]2CN3CCc4c([nH]c5ccc(OC)cc45)C(COC(=O)c4ccc(OC)c(OC)c4)(C2)C13 | – | – | inactive
29 | O=C(O)c1c(O)c2cc(Cl)ccc2oc1=O | > 200 | 158 | –
30 | NCCCCC(=O)c1cccnc1 | > 1000 | 501 | –
31 | NN1C(=O)CS/C1=N\C(=S)N/N=C1/SCC(=O)N1N | 57.5 | 85.1 | –
32 | CC(=O)OC1(CSc2ccccc2)CCCCC1 | > 200 | 49 | –
33 | COC(=O)C1C2C1C1C=CC2n2c(=O)n(-c3ccccc3)c(=O)n21 (stereo not given) | > 200 | > 200 | –
34 | O=C1C2C=CC(n3[nH]c(=O)n(Cc4ccccc4)c3=O)CC2C(=O)N1c1cccc(Cl)c1 (stereo not given) | > 398 | > 398 | –
35 | CCc1nnc(-c2nsc3ccccc23)s1 | > 145 | 126 | –
36 | CCOC(=O)/C(=C/c1ccc(C#N)cc1)N(CC)CC | > 251 | > 251 | –
37 | COC(=O)c1sc(C(=O)OC)c2c1CS(=O)C2 | – | – | inactive
38 | CCc1ccccc1N1CCN(C(=O)c2cc(OC)c(OC)c(OC)c2)CC1 | > 93.3 | 0.0295 | –
39 | O=C(/C=C/c1ccc(OCCCCCCCCCCOc2ccc(/C=C/C(=O)c3ccc(Cl)cc3)cc2)cc1)c1ccc(Cl)cc1 | > 4.17 | > 4.17 | –
40 | C[C@@]12[Se]c3ccccc3[C@]1(C)[Se]c1ccccc12 | – | – | inactive
41 | Cn1cc(NC(=O)[C@H]2CCC(N)=N2)cc1C(=O)NCCC(=N)N | – | – | inactive
42 | CC(=O)[C-](C)C(C)=O.CC(=O)[C-](C)C(C)=O.NCCNCCNC(=O)c1cccc2nc3ccccc3nc12.[Cl-].[Co+3] | > 151 | 31.6 | –
43 | COC(=O)c1c2c(cc3c1CC1(Cc4cc5c(c(C)c4C1)CCC5)C3)CCC2 (stereo not given) | > 200 | > 200 | –
44 | CC(=O)NNc1nc(C)c(C(=O)NNC(=O)C(=O)Nc2cccc(C(C)=O)c2)s1 | > 44.7 | > 44.7 | –

Row | SMILES | EC50 [µM] | IC50 [µM] | outcome
45 | C1Cc2nnnn2C1 | > 2290 | > 2290 | –
46 | COc1cc(NS(=O)(=O)c2ccc(C)cc2)c2nccnc2c1 | > 204 | 77.6 | –
47 | Cc1ccc(Cc2nn(C)c(=O)n2-n2cccc2)cc1 | > 200 | 102 | –
48 | Cn1c(C2CC(C)(C)c3c2c2ccccc2n3C)cc2ccccc21 (stereo not given) | > 21.9 | > 21.9 | –
49 | Cc1nc(N)sc1C(=O)/C=C\c1ccc2c(c1)OCO2 | > 871 | 437 | –
50 | CCCCOC(=S)SSC(=S)NCCNC(=S)SSC(=S)OCCCC | > 200 | 55 | –
51 | Cn1c(=O)cc(C=Nc2ccc(-c3ccccc3)cc2)c2ccccc21 | > 100 | 2 | –
52 | CC12C=CC(C)(C3C(=O)C4C(C(=O)C31)C1(C)C=CC4(C)S1=O)S2=O (stereo not given) | 21.9 | 60.3 | –
53 | CC(C)N(C(=O)C12C3C4C5C3C1(C(=O)N(C(C)C)C(C)C)C5(C#N)C42)C(C)C (stereo not given) | > 93.3 | > 93.3 | –
54 | N=C(N)C1CN(CCc2cnc[nH]2)C(=O)NC1=O (stereo not given) | > 200 | > 200 | –
55 | COc1ccc(C2(CC(C)O)SCCCS2)cc1 (stereo not given) | > 200 | 115 | –
56 | CCOC(=O)/C(O)=C/c1nc2ccccc2nc1C | > 46.8 | > 46.8 | –
57 | Nc1ncnc2c1N=CN(Oc1ccccc1)N2 | – | – | inactive
58 | S=C1NC2=C(COc3ccccc32)C(c2ccc(Cl)cc2)N1 (stereo not given) | > 200 | 23.4 | –
59 | CC1OC(OC2C(O)COC(OC3C(C)OC(OC4C(OC(=O)[C@]56CCC(C)(C)C[C@@H]5C5=CCC7[C@@]8(C)C[C@H](O)[C@H](OC9OC(CO)C(O)C(OC%10OC(CO)C(O)C(O)C%10O)C9O)[C@@](C)(CO)[C@@H]8CC[C@@]7(C)[C@]5(C)CC6)OCC(O)C4O)C(O)C3OC3OCC(O)C(O)C3O)C2O)C(O)C(O)C1O (stereo not given in full) | > 17 | > 17 | –
60 | O=c1ccc2nc3cc(Cl)ccc3sc-2c1 | > 8.13 | 2.19 | –
61 | COC(=O)c1ccc(Cc2ccc(C(=O)OC)o2)o1 | > 191 | > 191 | –
62 | O=c1[nH]c2nc3ccccc3c(=O)n2/c1=C/c1cccs1 | > 200 | 110 | –
63 | N#Cc1cc2c(n(C3OC(CO)C(O)C(O)C3O)c1=S)CCCC2 (stereo not given) | > 200 | > 200 | –
64 | c1ccc2nc(SSc3ccc4ccccc4n3)ccc2c1 | > 200 | 24 | –
65 | CC(=O)/C=C/c1ccc(C)cc1 | > 63.1 | > 63.1 | –
66 | N#C/C(=C/N1C(=O)/C(=C/c2ccc([N+](=O)[O-])cc2)SC1=S)c1nc2ccccc2s1 | > 200 | 15.5 | –

Row | SMILES | EC50 [µM] | IC50 [µM] | outcome
67 | COc1ccc(C(OCC2OC(n3ccc(NC(=O)c4ccccc4)nc3=O)CC2OP2(=S)SCCS2)(c2ccccc2)c2ccc(OC)cc2)cc1 (stereo not given) | > 100 | 44.7 | –
68 | CSC(=Nc1ccccc1)c1c(C)[nH]n(-c2ccccc2)c1=O | > 200 | 126 | –
69 | CCOC(=O)/C=C(/OCC)[C@@H]1C(C(=O)c2ccc(Cl)cc2)[C@H]1/C(=C\C(=O)OCC)OCC (stereo not given in full) | > 200 | 17.4 | –
70 | CCCCNC(=S)SSSC(=S)NCCCC | > 200 | 2.75 | –
71 | CC1S/C(=N\N=C\c2ccc(Cl)cc2)N=C1c1c(O)c2ccccc2oc1=O (stereo not given) | > 200 | 36.3 | –
72 | CCc1cc2c(c3[nH]ccc13)[C@@H](C)C[C@H]2C | – | – | inactive
73 | CCN1CCCCC(=N\O)/C(=N/O)CCCC1 | > 741 | > 741 | –
74 | CCOC(=O)c1cccnc1C(OC(C)=O)OC(C)=O | > 891 | 158 | –
75 | Cc1ccc(S(=O)(=O)N2CCCSCCSCCCN(S(=O)(=O)c3ccc(C)cc3)CC2)cc1 | > 13.2 | > 13.2 | –
76 | N#CC1(Cl)CC2CC1C1N=NN(c3ccccc3)C21 (stereo not given) | > 200 | > 200 | –
77 | O=C(/C=C/c1ccc(O)c(F)c1)CC(=O)/C=C/c1ccc(O)c(F)c1 | > 200 | 12.6 | –
78 | O=C1NC(=O)c2ccccc2/C1=C/c1ccc2c(c1)OCO2 | > 200 | 2.09 | –
79 | COCOc1cc(OCOC)cc(C(=O)Oc2ccccc2)c1 | > 200 | > 200 | –
80 | CCOC1OC2O[C@]3(C)CCC4C(C)CCC([C@H]1C)C24OO3 (stereo not given in full) | – | – | inactive
81 | CC1CCN(Cc2cccnc2)CC1 | – | – | inactive
82 | COC(=O)N/N=C(\C)CC(=O)Nc1ccc(Cl)cc1 | > 91.2 | > 91.2 | –
83 | CCN(CC)CCOCC1CCCN2CCCCC12 (stereo not given) | > 200 | > 200 | –
84 | CN(N)c1ncnc2c1cnn2C | > 209 | > 209 | –
85 | COc1ccccc1C1c2cc3c(cc2OC2(OC)COC(=O)C12)OCO3 (stereo not given) | > 200 | 10.2 | –
